Earlier results, collected in patent US20100210586A1, “POMEGRANATE EXTRACTS, NUTRITIONAL PRODUCTS CONTAINING THEM AND THEIR USES” (PROBELTE PHARMA, S.A., priority 2007, published 2010).

Conditions: oral

absorption when administered orally: poorly absorbed
Structure (SMILES): O=c1oc2c(O)c(O)cc3c(=O)oc4c(O)c(O)cc1c4c23 [ellagic acid]
